Laboratory results published in patent US20210283107A1, “Methods to Expand the Spectrum of Gram-Positive Antibiotics” (NORTH CAROLINA STATE UNIVERSITY, priority 2016, published 2021).

System: A. baumannii strain 5075
Assay: Time kill curve
Assay type: cell-based, Acinetobacter baumannii
Conditions: for growth similar to the control after: AB5075, time kill curve; for Initial toxicity seen until (time point): AB5075 growth, time kill curve
Protocol: A. baumannii strain 5075 was grown in the presence of compound 1 at either 20 μM or 30 μM, and samples were plated at 2, 4, 6, 8, and 24 hour time points. Initial toxicity was seen until the 4-hour time point for 20 μM and 8-hour time point for 30 μM; however, growth was similar to the control after 6 hours for 20 μM and 24 hours for 30 μM.
A. baumannii 5075 was grown overnight (16 hours) in CAMHB at 37° C. with shaking. This culture was then subcultured to 5×10^5 CFU/mL in fresh CAMHB. The inoculated media was aliquoted (3 mL) into culture tubes, and the compound was added from 100 mM stock solutions. Untreated inoculated culture tubes served as the control, and tubes were incubated at 37° C. with shaking. Samples were taken at 2, 4, 6, 8, and 24 hour time points and were serially diluted in fresh CAMHB and plated on LB agar. Plates were incubated under stationary conditions overnight at 37° C. After incubation, colonies were enumerated and growth curves were constructed.

## Nc1nc(-c2ccc(NC(=O)c3cc(Cl)cc(Cl)c3)cc2)c[nH]1 [Compound 1]
Compound alone at 20 μM
  growth similar to the control after: 6 h
  Initial toxicity seen until (time point): 4 h
Compound alone at 30 μM
  growth similar to the control after: 24 h
  Initial toxicity seen until (time point): 8 h
